Data from patent US20040258676A1, “Stimulation of the activity of an isoform of lysyl oxidase for combating against some pathologies due to an incomplete, absent or disorganized elastogenesis” (COLETICA, priority 2003, published 2004).

How the values were obtained:
[1] = test system: elastin (Eln) mRNA; assay: Screening of actives by qualitative RT-PCR, elastin mRNA in aged adult fibroblasts (Example 9); format: cell-based; conditions: actives at 1% (v/v), 24 hours, fibroblasts of normal human skin of aged adults; compared to actin and to negative control
Experimental: (§1) The actives were tested at 1% (v/v) on fibroblasts of normal human skin (originating from healthy <<aged >> adults). The culture was carried out, e.g. in a monolayer on 24-well culture plates, in a defined medium without serum (Fibroblast Basal Medium, Promocell, Germany). The cells were sown, e.g. at 40,000 per cm^2. At the confluence, the cells are placed in contact with the actives advantageously for 24 hours. In parallel, a non-treated control (medium alone) and three positive controls (TGF-β at 1 ng/ml, IL-1α at 50 pg/ml and Phytokine® (Coletica, France) at 2%(v/v)) are advantageously carried out, e.g. on the same culture plate. The TGF-β at 1 ng/ml and the IL-1α at 50 pg/ml were tested beforehand and the stimulation of the synthesis of elastin mRNA induced by these two cytokines at these concentrations was verified by an analysis of the mRNAs, e.g. by quantitative RT-PCR (×10 for TGF-β and x6 for IL-1 alpha). […] The total RNAs are extracted e.g. with the aid of an extraction kit of 96 wells on silica columns and were determined on a 96-well spectrophotometer at 260 nm (purity indicator: protein determination at 280 nm). […] The photographs of the gels were analyzed by image analysis and quantification of the intensity of the bands (Phoretix1D Quantifier, Non Linear Dynamics Ltd, USA). […]

[2] = test system: LOX mRNA; assay: Screening of actives by qualitative RT-PCR, LOX mRNA in aged adult fibroblasts (Example 9); format: cell-based; conditions: actives at 1% (v/v), 24 hours, fibroblasts of normal human skin of aged adults; compared to actin and to negative control
Experimental: as §1

[3] = test system: elastin mRNA; assay: Verification of positive controls: stimulation of the synthesis of elastin mRNA by quantitative RT-PCR; format: cell-based, human; conditions: TGF-β at 1 ng/ml
Experimental: The TGF-β at 1 ng/ml and the IL-1α at 50 pg/ml were tested beforehand and the stimulation of the synthesis of elastin mRNA induced by these two cytokines at these concentrations was verified by an analysis of the mRNAs, e.g. by quantitative RT-PCR (×10 for TGF-β and x6 for IL-1 alpha). After the time of placing the actives in contact with the cells, e.g. 24 hours, the media are removed and the cells are preserved e.g. by dry freezing at −80° C. after a rinsing in phosphate buffer pH 7.4. The total RNAs are extracted e.g. with the aid of an extraction kit of 96 wells on silica columns and were determined on a 96-well spectrophotometer at 260 nm (purity indicator: protein determination at 280 nm). […]
The actives were tested at 1% (v/v) on human scar tissue skin fibroblasts (surgical recovery of hypertropic scar after caesarean) in premature passage (lower than 5 passages). […] The TGF-β at 1 ng/ml and the IL-1α at 50 pg/ml were tested beforehand and the stimulation of the synthesis of elastin mRNA induced by these two cytokines at these concentrations was verified by an analysis of the mRNAs, e.g. by quantitative RT-PCR (x10 for TGF-β and x6 for IL-1 alpha). […] The total RNAs are extracted e.g. with the aid of an extraction kit of 96 wells on silica columns and were determined on a 96-well spectrophotometer at 260 nm (purity indicator: protein determination at 280 nm). […]

Molecule | Eln Control multiplied by: [1] | LOX Control multiplied by: [2] | stimulation of the synthesis of elastin mRNA [3]
OC[C@@H](O)[C@H](O)[C@@H](O)CO [Xylitol] | 0.27 | 3.10 | –
TGF-β | – | – | 10 x
